Earlier results as cited in patent publication US20220347065A1, “ANTIPERSPIRANT EMULSION” (Conopco, Inc., d/b/a UNILEVER, priority 2019, published 2022).

System: Staphylococcus epidermidis
Conditions: 80% or greater reduction in growth, 16 to 24 hours at 37° C.

SMILES	MIC
CCO [ethanol]	greater than 1 mg·ml^−1
CC(C)=CCCC(C)=CCCC(C)=CCO [farnesol, 3,7,11-trimethyldodeca-2,6,10-trienol]	ca. 25 μg·ml^−1
Oc1cc(Cl)ccc1Oc1ccc(Cl)cc1Cl [triclosan, 2′,4,4′-trichloro,2-hydroxy-diphenyl ether]	0.01 to 10 mg/L
